Experiment [1] concerns Mycobacterium tuberculosis H37Rv (ATCC 27294). In words: Minimum Inhibitory Concentration (MIC), broth microdilution in 96-well plates. The class given is cell-based. For orientation: In broth dilution the organism is exposed to a series of concentrations in liquid medium.
Experiment [2] has the same test system. Put plainly: microbe, parasite or virus in culture. The class given is cell-based. The settings on record: 504 h.

Converted amounts (≈) assume the structure as drawn. “And” between values parts separate entries of the source, which are not always exact repeats. Identical values can stand only once. Like-named read-outs stand apart in the source and are kept apart here.

As to `O=C(NCCOc1ccc(-c2ccccc2)cc1)c1cc([N+](=O)[O-])cc([N+](=O)[O-])c1` [Compound 1], in experiment [1], the MIC was 0.063 µg/mL and 0.155 µM.

With `O=C(NCCOc1ccc(Br)cc1)c1cc([N+](=O)[O-])cc([N+](=O)[O-])c1` [Compound 5], the MIC in experiment [1] is 0.063 µg/mL and 0.154 µM.

For `O=C(NCCOc1ccc(C(F)(F)F)cc1)c1cc([N+](=O)[O-])cc([N+](=O)[O-])c1` [Compound 6], the MIC in experiment [1] is 0.125 µg/mL and 0.313 µM.

As to `O=C(NCCOc1ccc(Cc2ccccc2)cc1)c1cc([N+](=O)[O-])cc([N+](=O)[O-])c1` [Compound 7], the MIC in experiment [1] is 0.063 µg/mL and 0.149 µM.

Molecule `O=C(NCCCOc1ccc(-c2ccccc2)cc1)c1cc([N+](=O)[O-])cc([N+](=O)[O-])c1` [Compound 8, N-(3-(4-phenylphenoxy)propyl)-3,5-dinitrobenzamide] displayed an MBC in experiment [2] of 0.125 µg/mL (≈ 0.297 µM). Further, the MIC in experiment [1] was 0.063 µg/mL and 0.149 µM.

In experiment [2], `COc1ccc(OCCCNC(=O)c2cc([N+](=O)[O-])cc([N+](=O)[O-])c2)cc1` [Compound 9, N-(3-(4-methoxyphenoxy)propyl)-3,5-dinitrobenzamide] registered an MBC of 0.125 µg/mL (≈ 0.333 µM). Further, in experiment [1], the minimum inhibitory concentration (MIC) is 0.063 µg/mL and 0.168 µM.

Consider `O=C(NCCCOc1ccc(OC(F)(F)F)cc1)c1cc([N+](=O)[O-])cc([N+](=O)[O-])c1` [Compound 10, N-(3-(4-trifluoromethoxyphenoxy)propyl)-3,5-dinitrobenzamide], for which the MBC in experiment [2] turned out to be 0.25 µg/mL (≈ 0.582 µM). For the same molecule, the minimum inhibitory concentration (MIC) in experiment [1] is 0.063 µg/mL and 0.147 µM.

In experiment [2], `O=C(NCCCOc1ccc(F)cc1)c1cc([N+](=O)[O-])cc([N+](=O)[O-])c1` [Compound 11, N-(3-(4-fluorophenoxy)propyl)-3,5-dinitrobenzamide] had an MBC of 0.125 µg/mL (≈ 0.344 µM). Also, the MIC in experiment [1] was 0.063 µg/mL and 0.173 µM.

For the molecule `O=C(NCCCOc1ccc(C(F)(F)F)cc1)c1cc([N+](=O)[O-])cc([N+](=O)[O-])c1` [Compound 12, N-(3-(4-trifluoromethylphenoxy)propyl)-3,5-dinitrobenzamide], the MIC in experiment [1] was 0.125 µg/mL and 0.302 µM.

`O=C(NCCCOc1ccccc1)c1cc([N+](=O)[O-])cc([N+](=O)[O-])c1` [Compound 13, N-(3-(phenoxy)propyl)-3,5-dinitrobenzamide] returned an MBC in experiment [2] of 0.125 µg/mL (≈ 0.362 µM). In addition, the minimum inhibitory concentration (MIC) in experiment [1] is 0.063 µg/mL and 0.182 µM.

Molecule `O=C(NCCCCCOc1ccc(-c2ccccc2)cc1)c1cc([N+](=O)[O-])cc([N+](=O)[O-])c1` [Compound 14, N-(5-(4-phenylphenoxy)pentyl)-3,5-dinitrobenzamide] registered an MBC in experiment [2] of 0.125 µg/mL (≈ 0.278 µM). In experiment [1], the MIC is 0.063 µg/mL and 0.14 µM.

In the case of `COc1ccc(OCCCCCNC(=O)c2cc([N+](=O)[O-])cc([N+](=O)[O-])c2)cc1` [Compound 15, N-(5-(4-methoxyphenoxy)pentyl)-3,5-dinitrobenzamide], the MBC in experiment [2] amounted to 0.125 µg/mL (≈ 0.31 µM). The MIC in experiment [1] was 0.063 µg/mL and 0.156 µM.

`O=C(NCCCCCOc1ccc(OC(F)(F)F)cc1)c1cc([N+](=O)[O-])cc([N+](=O)[O-])c1` [Compound 16, N-(5-(4-trifluoromethoxyphenoxy)pentyl)-3,5-dinitrobenzamide] had an MBC in experiment [2] of 0.063 µg/mL (≈ 0.138 µM). Also, in experiment [1], the MIC is 0.031 µg/mL and 0.0678 µM.

Consider `O=C(NCCCCCOc1ccc([N+](=O)[O-])cc1)c1cc([N+](=O)[O-])cc([N+](=O)[O-])c1` [Compound 17, N-(5-(4-nitrophenoxy)pentyl)-3,5-dinitrobenzamide], for which the MBC in experiment [2] came to 0.125 µg/mL (≈ 0.299 µM). Also, the MIC in experiment [1] was 0.031 µg/mL and 0.0741 µM.

In turn, `O=C(NCCCCCOc1ccc(F)cc1)c1cc([N+](=O)[O-])cc([N+](=O)[O-])c1` [Compound 18, N-(5-(4-fluorophenoxy)pentyl)-3,5-dinitrobenzamide] registered an MBC in experiment [2] of 0.063 µg/mL (≈ 0.161 µM). Also, in experiment [1], the MIC is 0.031 µg/mL and 0.0792 µM.

`O=C(NCCCCCOc1ccc(Cl)cc1)c1cc([N+](=O)[O-])cc([N+](=O)[O-])c1` [Compound 19, N-(5-(4-chlorophenoxy)pentyl)-3,5-dinitrobenzamide] had an MBC in experiment [2] of 0.063 µg/mL (≈ 0.154 µM). Further, the MIC in experiment [1] was 0.016 µg/mL and 0.0392 µM.

In experiment [2], `O=C(NCCCCCOc1ccc(C(F)(F)F)cc1)c1cc([N+](=O)[O-])cc([N+](=O)[O-])c1` [Compound 20, N-(5-(4-trifluoromethylphenoxy)pentyl)-3,5-dinitrobenzamide] returned an MBC of 0.063 µg/mL (≈ 0.143 µM). Also, the minimal inhibitory concentration (MIC) in experiment [1] was 0.031 µg/mL and 0.0702 µM.

With `O=C(NCCCCCOc1ccc(Cc2ccccc2)cc1)c1cc([N+](=O)[O-])cc([N+](=O)[O-])c1` [Compound 21, N-(5-(4-benzylphenoxy)pentyl)-3,5-dinitrobenzamide], the MBC in experiment [2] worked out at 0.25 µg/mL (≈ 0.539 µM). The minimal inhibitory concentration (MIC) in experiment [1] was 0.063 µg/mL and 0.136 µM.

Consider `O=C(NCCCCCOc1ccc(Br)cc1)c1cc([N+](=O)[O-])cc([N+](=O)[O-])c1` [Compound 22, N-(5-(4-bromophenoxy)pentyl)-3,5-dinitrobenzamide], for which the MBC in experiment [2] was determined as 0.063 µg/mL (≈ 0.139 µM). The MIC in experiment [1] is 0.031 µg/mL and 0.0685 µM.

Molecule `O=C(NCCCCCOc1ccccc1)c1cc([N+](=O)[O-])cc([N+](=O)[O-])c1` [Compound 23, N-(5-(phenoxy)pentyl)-3,5-dinitrobenzamide] showed an MBC in experiment [2] of 0.063 µg/mL (≈ 0.169 µM). For the same molecule, in experiment [1], the minimal inhibitory concentration (MIC) is 0.031 µg/mL and 0.083 µM.

Regarding `COc1ccc(OCCCCCCCCCNC(=O)c2cc([N+](=O)[O-])cc([N+](=O)[O-])c2)cc1` [Compound 24, N-(9-(4-methoxyphenoxy)nonyl)-3,5-dinitrobenzamide], the MBC in experiment [2] stood at 0.031 µg/mL (≈ 0.0675 µM). Also, in experiment [1], the MIC was 0.016 µg/mL and 0.0348 µM.

`COc1ccc(OCCCCCCCCCCCNC(=O)c2cc([N+](=O)[O-])cc([N+](=O)[O-])c2)cc1` [Compound 26, N-(11-(4-methoxyphenoxy)undecyl)-3,5-dinitrobenzamide] had an MBC in experiment [2] of 0.125 µg/mL (≈ 0.256 µM). Moreover, in experiment [1], the MIC was 0.063 µg/mL and 0.129 µM.

In experiment [2], `C[N+]1(C)CCN(C(=O)c2cc([N+](=O)[O-])cc([N+](=O)[O-])c2)CC1` [Compound 28, 4-(3,5-dinitrobenzoyl)-1,1-dimethylpiperazin-1-ium] yielded an MBC above 16 µg/mL. In experiment [1], this molecule had a minimum inhibitory concentration (MIC) above 16 µg/mL.

In turn, `O=C(c1cc([N+](=O)[O-])cc([N+](=O)[O-])c1)N1CCN(Cc2ccccc2)CC1` [Compound 29, (3,5-dinitrophenyl)-4-benzylpiperazin-1-yl-methanone] displayed an MBC in experiment [2] of 4 µg/mL (≈ 10.8 µM). The MIC in experiment [1] was 2 µg/mL and 5.4 µM.

Take `O=C(c1cc([N+](=O)[O-])cc([N+](=O)[O-])c1)N1CCC(Cc2ccccc2)CC1` [Compound 31, (3,5-dinitrophenyl)-4-benzylpiperidin-1-yl-methanone]: the MBC in experiment [2] came out at 2 µg/mL (≈ 5.41 µM). Moreover, in experiment [1], the MIC was 0.5 µg/mL and 1.35 µM.

On to `COc1ccc(OC2CCN(C(=O)c3cc([N+](=O)[O-])cc([N+](=O)[O-])c3)CC2)cc1` [Compound 32, (3,5-dinitrophenyl)(4-(4-methoxyphenoxy)piperidin-1-yl)methanone], for which the MIC in experiment [1] is 2 µg/mL and 4.98 µM.

Take `O=C(c1cc([N+](=O)[O-])cc([N+](=O)[O-])c1)N1CCC(O)CC1` [Compound 33, (3,5-dinitrophenyl)-4-hydroxypiperidin-1-yl-methanone]: in experiment [2], the MBC was found to be 16 µg/mL (≈ 54.2 µM). In experiment [1], this molecule gave a minimal inhibitory concentration (MIC) above 16 µg/mL.

For `O=C(c1cc([N+](=O)[O-])cc([N+](=O)[O-])c1)N1CCCCC1` [Compound 34, (3,5-dinitrophenyl)-piperidin-1-yl-methanone], the MBC in experiment [2] came to 16 µg/mL (≈ 57.3 µM). This molecule also registered an MIC in experiment [1] above 16 µg/mL.

As for `O=C(c1cc([N+](=O)[O-])cc([N+](=O)[O-])c1)N1CCOCC1` [Compound 35, (3,5-dinitrophenyl)(morpholino)methanone], in experiment [2], the MBC is above 16 µg/mL. In experiment [1], this molecule returned a minimal inhibitory concentration (MIC) above 16 µg/mL.

For the molecule `CCCCCCCCCOCCCCCCCCCNC(=O)c1cc([N+](=O)[O-])cc([N+](=O)[O-])c1` [Compound 36, N-(9-(nonyloxy)nonyl)-3,5-dinitrobenzamide], the MIC in experiment [1] was 0.063 µg/mL and 0.127 µM.

As to `O=C(NCCCCCCCCCO)c1cc([N+](=O)[O-])cc([N+](=O)[O-])c1` [Compound 37, N-(9-hydroxynonyl)-3,5-dinitrobenzamide], the minimal inhibitory concentration (MIC) in experiment [1] is 0.25 µg/mL and 0.707 µM.

On to `O=C(NCCCCCO)c1cc([N+](=O)[O-])cc([N+](=O)[O-])c1` [Compound 38, N-(5-hydroxypentyl)-3,5-dinitrobenzamide], for which the MIC in experiment [1] was 2 µg/mL and 6.73 µM.

Turning to `O=C(NCCCO)c1cc([N+](=O)[O-])cc([N+](=O)[O-])c1` [Compound 39, N-(3-hydroxypropyl)-3,5-dinitrobenzamide], the minimum inhibitory concentration (MIC) in experiment [1] is 4 µg/mL and 14.9 µM.

`O=C(NCCO)c1cc([N+](=O)[O-])cc([N+](=O)[O-])c1` [Compound 40, N-(2-hydroxyethyl)-3,5-dinitrobenzamide]: the MIC in experiment [1] is 16 µg/mL and 62.7 µM.

Take `O=C(NCCCCCCCCCCCO)c1cc([N+](=O)[O-])cc([N+](=O)[O-])c1` [Compound 41, N-(11-hydroxyundecyl)-3,5-dinitrobenzamide]: in experiment [2], the MBC amounted to 0.25 µg/mL (≈ 0.655 µM). Further, the minimal inhibitory concentration (MIC) in experiment [1] is 0.125 µg/mL and 0.328 µM.

In the case of `O=C(NCCOc1ccccc1)c1cc([N+](=O)[O-])cc(C(F)(F)F)c1` [Compound 42], the minimal inhibitory concentration (MIC) in experiment [1] (M. tuberculosis H37Rv, 10th day of incubation, concentration with no visible turbidity, read-out: MIC) was 0.25 µg/mL; in experiment [1] (M. tuberculosis H37Rv, 10th day of incubation, same MIC expressed in nM, read-out: MIC), 671 nM.

In experiment [2], `O=C(NCCCCCN1CCCCC1)c1cc([N+](=O)[O-])cc([N+](=O)[O-])c1` [Compound 44] displayed an MBC above 16 µg/mL. Further, the MIC in experiment [1] was 16 µg/mL and 43.9 µM.

Turning to `O=[N+]([O-])c1cc(C2=NCCO2)cc([N+](=O)[O-])c1` [Compound 47, 2-(3,5-dinitrophenyl)-4,5-dihydrooxazole], in experiment [2], the MBC was found to be 4 µg/mL (≈ 16.9 µM). Besides, the minimal inhibitory concentration (MIC) in experiment [1] was 2 µg/mL and 8.43 µM.

On to `O=[N+]([O-])c1cc(C2=NCCCO2)cc([N+](=O)[O-])c1` [Compound 48, 2-(3,5-dinitrophenyl)-5,6-dihydro-4H-1,3-oxazine], for which, in experiment [2], the MBC was above 16 µg/mL. Besides, the minimal inhibitory concentration (MIC) in experiment [1] was 16 µg/mL and 63.7 µM.

Broadly, the MIC is the smallest concentration in the dilution series that meets the test's criterion for growth inhibition.

The record behind these values is patent EP4345092A1, “NITROBENZAMIDE COMPOUNDS, METHODS AND USES THEREOF” (Faculdade de Farmácia da Universidade de Lisboa, priority 2022, dated 2024).
